{"source": "patent US8697841B2", "about": "“Peptide for transmigration across blood brain barrier and delivery systems comprising the same” (Industrial Technology Research Institute, priority 2009, dated 2014)", "assay": "Hot plate test (PD study)", "format": "in vivo, mice", "settings": "7.5 mg/kg EM-1, intravenous injection", "experimental": "Hot-plate test was used to evaluate thermal pain reflexes due to footpad contact with a heated surface. The response of the animals to the hot plate reflects a nociceptive behavior, which involves complex circuit integration in the central nervous system.\nBriefly, the mice were individually placed on a […] hot plate apparatus and the time until onset of licking the hindlimb was measured. Basal latency was approximate 2 sec, and cut-off time in the absence of a response (T2) was set at 45 sec. The inhibition of the hindlimb-licking responses were expressed as percent maximal possible effect (% MPE) which was calculated as [(T1−T0)/(T2−T0)]×100, where T0 and T1 were the hot-plate latencies before and after intravenous injection of the EM-1 formulations. The hot-plate latency was determined 10, 20, 30, 60, 120, 180 and 210 min after the formulation injection (7.5 mg/kg EM-1), and the AUC (the area under a curve) values for MPE % versus time (min) plots were calculated."}
{"substance": "endomorphin-1 [EM-1]", "values": [{"measurement": "analgesic effect (nociceptive responses) in hot-plate test", "result": "did not reduce the nociceptive responses"}]}
